# Data: patent US9969694B2, “N-(arylalkyl)-N′-pyrazolyl-urea, thiourea, guanidine and cyanoguanidine compounds as TrkA kinase inhibitors” (Array BioPharma Inc., priority 2012, dated 2018)
# Key:
# Assay in all cases: Off-Target Kinase Profiling
# Format in all cases: biochemical
# Details in all cases: 10 μM; ATP near Km
# Rse = biological target: T1, Rse (Homo sapiens, UniProt Q06418)
# T1 construct: purchased Millipore, Inc. (KinaseProfiler service)
# Procedure: (§1) Representative compounds of the invention (Examples 33 and 10) were tested for off-target kinase activity at a concentration of 10 μM by Millipore, Inc. in their KinaseProfiler™ service against all the kinases available in their full kinase panel. Compounds were run in duplicate at a concentration of ATP near the Km for each individual kinase according to Millipore's specifications. The results are shown in Table B. Data are reported as percent of control (POC) and are the average of the two replicates.
# PASK = biological target: T2, PASK (Homo sapiens, UniProt Q96RG2)
# T2 construct: purchased Millipore, Inc. (KinaseProfiler service)
# Procedure: as §1
# MSK2 = biological target: T3, MSK2 (Homo sapiens, UniProt O75676)
# T3 construct: purchased Millipore, Inc. (KinaseProfiler service)
# Procedure: as §1
# MELK = biological target: T4, MELK (Homo sapiens, UniProt Q14680)
# T4 construct: purchased Millipore, Inc. (KinaseProfiler service)
# Procedure: as §1
# Lck = biological target: T5, Lck (Homo sapiens, UniProt P06239)
# T5 construct: purchased Millipore, Inc. (KinaseProfiler service)
# Procedure: as §1
# PKCeta = biological target: T6, PKCeta (Homo sapiens, UniProt P24723)
# T6 construct: purchased Millipore, Inc. (KinaseProfiler service)
# Procedure: as §1
# Fgr = biological target: T7, Fgr (Homo sapiens, UniProt P09769)
# T7 construct: purchased Millipore, Inc. (KinaseProfiler service)
# T7 sequence (P09769 whole entry): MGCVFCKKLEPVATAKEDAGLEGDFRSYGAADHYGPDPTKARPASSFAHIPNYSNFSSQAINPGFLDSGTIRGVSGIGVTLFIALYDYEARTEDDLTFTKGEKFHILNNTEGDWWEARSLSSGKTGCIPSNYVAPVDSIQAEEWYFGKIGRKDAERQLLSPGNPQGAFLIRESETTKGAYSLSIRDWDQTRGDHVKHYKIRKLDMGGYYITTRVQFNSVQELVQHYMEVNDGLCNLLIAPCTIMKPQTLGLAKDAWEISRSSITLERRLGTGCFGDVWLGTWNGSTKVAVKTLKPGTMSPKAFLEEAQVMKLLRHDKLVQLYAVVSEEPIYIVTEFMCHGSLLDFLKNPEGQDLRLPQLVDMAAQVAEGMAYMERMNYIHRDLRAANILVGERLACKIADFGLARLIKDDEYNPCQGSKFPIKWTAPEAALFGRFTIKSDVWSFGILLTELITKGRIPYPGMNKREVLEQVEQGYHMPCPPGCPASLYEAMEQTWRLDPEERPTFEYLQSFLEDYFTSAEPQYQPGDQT
# Procedure: as §1
# MRCKbeta = biological target: T8, MRCKbeta (Homo sapiens, UniProt Q9Y5S2)
# T8 construct: purchased Millipore, Inc. (KinaseProfiler service)
# Procedure: as §1
# Haspin = biological target: T9, Haspin (Homo sapiens, UniProt Q8TF76)
# T9 construct: purchased Millipore, Inc. (KinaseProfiler service)
# Procedure: as §1
# GRK6 = biological target: T10, GRK6 (Homo sapiens, UniProt P43250)
# T10 construct: purchased Millipore, Inc. (KinaseProfiler service)
# T10 sequence (P43250 whole entry): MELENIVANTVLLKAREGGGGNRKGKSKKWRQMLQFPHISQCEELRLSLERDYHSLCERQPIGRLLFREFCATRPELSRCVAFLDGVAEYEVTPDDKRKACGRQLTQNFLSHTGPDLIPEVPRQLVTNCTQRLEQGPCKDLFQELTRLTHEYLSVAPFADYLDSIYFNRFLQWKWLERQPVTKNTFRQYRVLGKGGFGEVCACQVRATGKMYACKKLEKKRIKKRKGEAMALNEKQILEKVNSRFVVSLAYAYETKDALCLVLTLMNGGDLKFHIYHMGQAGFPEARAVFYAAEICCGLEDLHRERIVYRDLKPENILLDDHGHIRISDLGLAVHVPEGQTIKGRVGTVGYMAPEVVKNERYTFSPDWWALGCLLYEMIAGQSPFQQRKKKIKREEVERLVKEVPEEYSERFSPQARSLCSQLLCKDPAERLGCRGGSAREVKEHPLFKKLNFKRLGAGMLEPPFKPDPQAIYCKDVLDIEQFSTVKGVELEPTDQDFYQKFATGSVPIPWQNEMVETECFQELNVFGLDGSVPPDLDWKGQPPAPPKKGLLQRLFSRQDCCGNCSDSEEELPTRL
# Procedure: as §1
# HIPK2 = biological target: T11, HIPK2 (Homo sapiens, UniProt Q9H2X6)
# T11 construct: purchased Millipore, Inc. (KinaseProfiler service)
# Procedure: as §1
# KIT = biological target: T12, KIT (Homo sapiens, UniProt P10721)
# T12 construct: purchased Millipore, Inc. (KinaseProfiler service)
# Procedure: as §1
# p70S6K = biological target: T13, p70S6K (Homo sapiens, UniProt P23443)
# T13 construct: purchased Millipore, Inc. (KinaseProfiler service)
# Procedure: as §1
# MAP4K2 = biological target: T14, MAP4K2 (Homo sapiens, UniProt Q12851)
# T14 construct: purchased Millipore, Inc. (KinaseProfiler service)
# Procedure: as §1
# MKK7beta = biological target: T15, MKK7beta (Homo sapiens, UniProt O14733)
# T15 construct: purchased Millipore, Inc. (KinaseProfiler service)
# Procedure: as §1
# PDK1 = biological target: T16, PDK1 (Homo sapiens, UniProt O15530)
# T16 construct: purchased Millipore, Inc. (KinaseProfiler service)
# Procedure: as §1
# SIK = biological target: T17, SIK (Homo sapiens, UniProt P57059)
# T17 construct: purchased Millipore, Inc. (KinaseProfiler service)
# Procedure: as §1
# MYLK = biological target: T18, MYLK (Homo sapiens, UniProt Q15746)
# T18 construct: purchased Millipore, Inc. (KinaseProfiler service)
# Procedure: as §1
# FGFR1 = biological target: T19, FGFR1 (Homo sapiens, UniProt P11362)
# T19 construct: purchased Millipore, Inc. (KinaseProfiler service)
# T19 sequence (P11362 22-822): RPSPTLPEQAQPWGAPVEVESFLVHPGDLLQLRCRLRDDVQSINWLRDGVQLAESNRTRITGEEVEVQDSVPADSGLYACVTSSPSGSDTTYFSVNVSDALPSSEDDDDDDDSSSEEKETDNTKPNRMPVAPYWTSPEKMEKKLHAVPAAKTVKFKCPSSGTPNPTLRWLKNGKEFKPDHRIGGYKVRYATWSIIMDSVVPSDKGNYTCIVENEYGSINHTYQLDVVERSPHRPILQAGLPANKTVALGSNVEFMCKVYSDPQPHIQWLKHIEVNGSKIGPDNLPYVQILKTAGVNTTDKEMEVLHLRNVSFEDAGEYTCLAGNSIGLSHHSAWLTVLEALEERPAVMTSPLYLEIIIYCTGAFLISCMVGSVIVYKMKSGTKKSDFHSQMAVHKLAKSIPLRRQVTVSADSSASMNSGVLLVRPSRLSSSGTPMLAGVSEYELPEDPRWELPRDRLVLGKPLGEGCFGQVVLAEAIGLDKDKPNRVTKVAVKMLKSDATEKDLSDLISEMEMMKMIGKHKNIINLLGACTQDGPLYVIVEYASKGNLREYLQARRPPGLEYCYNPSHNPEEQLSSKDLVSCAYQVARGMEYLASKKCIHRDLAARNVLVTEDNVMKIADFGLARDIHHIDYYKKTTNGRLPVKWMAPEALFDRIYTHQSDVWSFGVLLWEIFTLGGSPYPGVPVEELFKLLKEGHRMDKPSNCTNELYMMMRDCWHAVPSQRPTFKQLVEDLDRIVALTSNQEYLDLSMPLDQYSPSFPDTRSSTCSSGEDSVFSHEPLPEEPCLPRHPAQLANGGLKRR
# Procedure: as §1
# SGK1 = biological target: T20, SGK1 (Homo sapiens, UniProt O00141)
# T20 construct: purchased Millipore, Inc. (KinaseProfiler service)
# Procedure: as §1
# EphA7 = biological target: T21, EphA7 (Homo sapiens, UniProt Q15375)
# T21 construct: purchased Millipore, Inc. (KinaseProfiler service)
# Procedure: as §1
# NEK6 = biological target: T22, NEK6 (Homo sapiens, UniProt Q9HC98)
# T22 construct: purchased Millipore, Inc. (KinaseProfiler service)
# T22 sequence (Q9HC98 whole entry): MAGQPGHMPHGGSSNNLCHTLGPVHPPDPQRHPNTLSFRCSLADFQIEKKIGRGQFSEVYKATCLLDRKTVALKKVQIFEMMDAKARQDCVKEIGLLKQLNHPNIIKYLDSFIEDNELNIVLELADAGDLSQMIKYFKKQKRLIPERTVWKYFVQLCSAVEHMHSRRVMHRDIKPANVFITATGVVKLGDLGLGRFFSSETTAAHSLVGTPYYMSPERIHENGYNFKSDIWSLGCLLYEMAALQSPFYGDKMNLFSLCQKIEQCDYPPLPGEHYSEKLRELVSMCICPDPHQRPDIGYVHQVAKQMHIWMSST
# Procedure: as §1
# AKT3 = biological target: T23, AKT3 (Homo sapiens, UniProt Q9Y243)
# T23 construct: purchased Millipore (KinaseProfiler service)
# T23 sequence (Q9Y243 whole entry): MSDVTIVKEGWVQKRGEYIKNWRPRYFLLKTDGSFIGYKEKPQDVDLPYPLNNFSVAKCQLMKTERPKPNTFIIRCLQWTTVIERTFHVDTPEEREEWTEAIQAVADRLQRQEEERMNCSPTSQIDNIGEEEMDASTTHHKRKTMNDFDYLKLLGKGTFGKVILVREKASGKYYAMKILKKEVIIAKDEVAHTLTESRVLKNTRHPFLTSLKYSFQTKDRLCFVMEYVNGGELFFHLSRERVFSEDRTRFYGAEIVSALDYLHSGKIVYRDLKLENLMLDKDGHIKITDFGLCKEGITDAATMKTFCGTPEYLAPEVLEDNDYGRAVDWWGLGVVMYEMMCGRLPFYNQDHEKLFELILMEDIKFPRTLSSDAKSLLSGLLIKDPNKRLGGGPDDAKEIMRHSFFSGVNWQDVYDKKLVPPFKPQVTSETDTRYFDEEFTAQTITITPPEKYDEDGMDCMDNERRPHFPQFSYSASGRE
# Procedure: as §1
# NLK = biological target: T24, NLK (Homo sapiens, UniProt Q9UBE8)
# T24 construct: purchased Millipore, Inc. (KinaseProfiler service)
# Procedure: as §1
# EphA5 = biological target: T25, EphA5 (Homo sapiens, UniProt P54756)
# T25 construct: purchased Millipore, Inc. (KinaseProfiler service)
# Procedure: as §1
# EphB2 = biological target: T26, EphB2 (Homo sapiens, UniProt P29323)
# T26 construct: purchased Millipore, Inc. (KinaseProfiler service)
# Procedure: as §1
# PAK2 = biological target: T27, PAK2 (Homo sapiens, UniProt Q13177)
# T27 construct: purchased Millipore, Inc. (KinaseProfiler service)
# Procedure: as §1
# Fms = biological target: T28, Fms (Homo sapiens, UniProt P07333)
# T28 construct: purchased Millipore, Inc. (KinaseProfiler service)
# Procedure: as §1
# EphA2 = biological target: T29, EphA2 (Homo sapiens, UniProt P29317)
# T29 construct: purchased Millipore, Inc. (KinaseProfiler service)
# Procedure: as §1
# NEK11 = biological target: T30, NEK11 (Homo sapiens, UniProt Q8NG66)
# T30 construct: purchased Millipore, Inc. (KinaseProfiler service)
# Procedure: as §1
# STK33 = biological target: T31, STK33 (Homo sapiens, UniProt Q9BYT3)
# T31 construct: purchased Millipore, Inc. (KinaseProfiler service)
# T31 sequence (Q9BYT3 whole entry): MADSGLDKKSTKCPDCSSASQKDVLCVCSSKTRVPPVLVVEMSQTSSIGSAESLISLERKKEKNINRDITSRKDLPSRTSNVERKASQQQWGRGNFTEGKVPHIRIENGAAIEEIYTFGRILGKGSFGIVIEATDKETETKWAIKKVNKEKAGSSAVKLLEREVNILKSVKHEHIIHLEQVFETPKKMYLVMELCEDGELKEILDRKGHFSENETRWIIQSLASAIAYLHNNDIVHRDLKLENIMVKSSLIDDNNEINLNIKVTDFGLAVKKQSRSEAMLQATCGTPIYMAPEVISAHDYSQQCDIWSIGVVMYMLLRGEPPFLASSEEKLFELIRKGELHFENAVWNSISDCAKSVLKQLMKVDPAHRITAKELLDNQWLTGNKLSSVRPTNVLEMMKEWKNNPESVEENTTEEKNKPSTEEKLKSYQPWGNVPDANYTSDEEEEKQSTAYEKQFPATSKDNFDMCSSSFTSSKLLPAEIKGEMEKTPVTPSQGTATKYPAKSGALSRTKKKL
# Procedure: as §1
# PDGFRalpha = biological target: T32, PDGFRalpha (Homo sapiens, UniProt P16234)
# T32 construct: purchased Millipore, Inc. (KinaseProfiler service)
# Procedure: as §1
# Lyn = biological target: T33, Lyn (Homo sapiens, UniProt P07948)
# T33 construct: purchased Millipore, Inc. (KinaseProfiler service)
# Procedure: as §1
# FAK = biological target: T34, FAK (Homo sapiens, UniProt Q05397)
# T34 construct: purchased Millipore, Inc. (KinaseProfiler service)
# T34 sequence (Q05397 whole entry): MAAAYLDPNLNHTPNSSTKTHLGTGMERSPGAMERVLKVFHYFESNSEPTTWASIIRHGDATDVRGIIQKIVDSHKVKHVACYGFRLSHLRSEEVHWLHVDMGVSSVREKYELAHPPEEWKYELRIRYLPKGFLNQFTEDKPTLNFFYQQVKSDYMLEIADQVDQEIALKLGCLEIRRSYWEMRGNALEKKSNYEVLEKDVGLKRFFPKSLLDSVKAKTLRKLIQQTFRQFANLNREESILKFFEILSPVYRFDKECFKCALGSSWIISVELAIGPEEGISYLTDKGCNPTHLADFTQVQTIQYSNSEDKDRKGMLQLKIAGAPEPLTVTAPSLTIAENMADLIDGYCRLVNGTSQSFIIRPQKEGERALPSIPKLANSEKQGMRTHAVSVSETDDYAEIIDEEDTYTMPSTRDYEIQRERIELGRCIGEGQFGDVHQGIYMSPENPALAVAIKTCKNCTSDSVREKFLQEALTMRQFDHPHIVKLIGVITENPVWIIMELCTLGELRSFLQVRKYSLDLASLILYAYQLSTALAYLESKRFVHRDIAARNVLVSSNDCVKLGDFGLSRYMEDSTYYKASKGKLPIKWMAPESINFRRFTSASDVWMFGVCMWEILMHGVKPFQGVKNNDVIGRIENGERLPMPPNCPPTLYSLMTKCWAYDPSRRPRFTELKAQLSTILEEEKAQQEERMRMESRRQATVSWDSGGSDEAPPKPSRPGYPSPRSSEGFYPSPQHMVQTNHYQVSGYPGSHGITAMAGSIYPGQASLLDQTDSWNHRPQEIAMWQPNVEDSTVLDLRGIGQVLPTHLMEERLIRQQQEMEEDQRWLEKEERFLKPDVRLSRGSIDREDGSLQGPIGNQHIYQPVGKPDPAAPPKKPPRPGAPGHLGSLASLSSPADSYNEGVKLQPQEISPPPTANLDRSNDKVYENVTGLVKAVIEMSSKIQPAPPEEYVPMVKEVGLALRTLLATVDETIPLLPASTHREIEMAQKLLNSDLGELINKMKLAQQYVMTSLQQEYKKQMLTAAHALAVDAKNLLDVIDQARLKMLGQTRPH
# Procedure: as §1
# IKKalpha = biological target: T35, IKKalpha (Homo sapiens, UniProt O15111)
# T35 construct: purchased Millipore, Inc. (KinaseProfiler service)
# Procedure: as §1
# PRKG1alpha = biological target: T36, PRKG1alpha (Homo sapiens, UniProt Q13976)
# T36 construct: purchased Millipore, Inc. (KinaseProfiler service)
# T36 sequence (Q13976 whole entry): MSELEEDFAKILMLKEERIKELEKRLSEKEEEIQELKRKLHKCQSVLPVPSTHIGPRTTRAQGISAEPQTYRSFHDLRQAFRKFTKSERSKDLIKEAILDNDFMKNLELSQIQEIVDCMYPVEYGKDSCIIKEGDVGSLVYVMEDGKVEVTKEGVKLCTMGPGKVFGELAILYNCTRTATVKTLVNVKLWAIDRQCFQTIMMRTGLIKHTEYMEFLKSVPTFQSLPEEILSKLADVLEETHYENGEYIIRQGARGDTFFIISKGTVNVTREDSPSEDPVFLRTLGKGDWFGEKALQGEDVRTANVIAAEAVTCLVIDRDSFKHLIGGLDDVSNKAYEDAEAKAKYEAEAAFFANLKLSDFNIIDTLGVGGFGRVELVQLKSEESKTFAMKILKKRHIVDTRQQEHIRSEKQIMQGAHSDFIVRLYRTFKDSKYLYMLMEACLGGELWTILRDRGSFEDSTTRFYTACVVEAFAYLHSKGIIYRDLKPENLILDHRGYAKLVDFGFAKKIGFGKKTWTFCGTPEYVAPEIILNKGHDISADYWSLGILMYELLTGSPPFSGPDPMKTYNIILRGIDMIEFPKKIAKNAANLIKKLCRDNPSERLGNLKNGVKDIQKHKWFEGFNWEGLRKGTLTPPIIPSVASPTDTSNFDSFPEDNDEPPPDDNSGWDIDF
# Procedure: as §1
# p38gamma = biological target: T37, p38gamma (Homo sapiens, UniProt P53778)
# T37 construct: purchased Millipore, Inc. (KinaseProfiler service)
# Procedure: as §1
# CDK1/cyclinB = biological target: T38, CDK1/cyclinB (Homo sapiens, UniProt P06493)
# T38 construct: purchased Millipore (KinaseProfiler service)
# Procedure: as §1
# Fyn = biological target: T39, Fyn (Homo sapiens, UniProt P06241)
# T39 construct: purchased Millipore, Inc. (KinaseProfiler service)
# Procedure: as §1
# CAMK4 = biological target: T40, CAMK4 (Homo sapiens, UniProt Q16566)
# T40 construct: purchased Millipore (KinaseProfiler service)
# Procedure: as §1
# JNK2alpha2 = biological target: T41, JNK2alpha2 (Homo sapiens, UniProt P45984)
# T41 construct: purchased Millipore, Inc. (KinaseProfiler service)
# Procedure: as §1
smiles,measurement,setting,value
"COCc1ccc(C2CCC2)c(CNC(=O)Nc2c(C)c(-c3cnc(C)nc3)nn2-c2ccccc2)c1 [Example 10, 1-(2-cyclobutyl-5-(methoxymethyl)benzyl)-3-(4-methyl-3-(2-methylpyrimidin-5-yl)-1-phenyl-1H-pyrazol-5-yl)urea]",Avg POC Rse,Rse,103 POC
same,Avg POC PASK,PASK,70 POC
same,Avg POC MSK2,MSK2,110.5 POC
same,Avg POC MELK,MELK,83.5 POC
same,Avg POC Lck,Lck,75.5 POC
same,Avg POC PKCeta,PKCeta,86.5 POC
same,Avg POC Fgr,Fgr,97 POC
same,Avg POC MRCKbeta,MRCKbeta,108.5 POC
same,Avg POC Haspin,Haspin,80.5 POC
same,Avg POC GRK6,GRK6,97.5 POC
same,Avg POC HIPK2,HIPK2,102.5 POC
same,Avg POC KIT,KIT,102 POC
same,Avg POC p70S6K,p70S6K,111 POC
same,Avg POC MAP4K2,MAP4K2,95.5 POC
same,Avg POC MKK7beta,MKK7beta,132.5 POC
same,Avg POC PDK1,PDK1,120.5 POC
same,Avg POC SIK,SIK,104 POC
same,Avg POC MYLK,MYLK,88 POC
same,Avg POC FGFR1,FGFR1,68 POC
same,Avg POC SGK1,SGK1,96 POC
same,Avg POC EphA7,EphA7,92.5 POC
same,Avg POC NEK6,NEK6,92.5 POC
same,Avg POC AKT3,AKT3,102.5 POC
same,Avg POC NLK,NLK,107 POC
same,Avg POC EphA5,EphA5,114 POC
same,Avg POC EphB2,EphB2,103 POC
same,Avg POC PAK2,PAK2,88 POC
same,Avg POC Fms,Fms,83.5 POC
same,Avg POC EphA2,EphA2,103 POC
same,Avg POC NEK11,NEK11,102 POC
same,Avg POC STK33,STK33,98 POC
same,Avg POC PDGFRalpha,PDGFRalpha,102 POC
same,Avg POC Lyn,Lyn,86 POC
same,Avg POC FAK,FAK,96.5 POC
same,Avg POC IKKalpha,IKKalpha,112.5 POC
same,Avg POC PRKG1alpha,PRKG1alpha,113 POC
same,Avg POC p38gamma,p38gamma,102.5 POC
same,Avg POC CDK1/cyclinB,CDK1/cyclinB,92 POC
same,Avg POC Fyn,Fyn,103 POC
same,Avg POC CAMK4,CAMK4,144.5 POC
same,Avg POC JNK2alpha2,JNK2alpha2,81.5 POC
"COCc1ccc(C(F)(F)F)c(CNC(=O)Nc2c(C)c(-c3cnn(C)c3)nn2-c2ccccc2)c1 [Example 33, 1-(1′,4-dimethyl-1-phenyl-1H,1′H-[3,4′-bipyrazol]-5-yl)-3-(5-(methoxymethyl)-2-(trifluoromethyl)benzyl)urea]",Avg POC Rse,Rse,110 POC
same,Avg POC PASK,PASK,205 POC
same,Avg POC MSK2,MSK2,207.5 POC
same,Avg POC MELK,MELK,114 POC
same,Avg POC Lck,Lck,93 POC
same,Avg POC PKCeta,PKCeta,98 POC
same,Avg POC Fgr,Fgr,121 POC
same,Avg POC MRCKbeta,MRCKbeta,116.5 POC
same,Avg POC Haspin,Haspin,109 POC
same,Avg POC GRK6,GRK6,99 POC
same,Avg POC HIPK2,HIPK2,95 POC
same,Avg POC KIT,KIT,94 POC
same,Avg POC p70S6K,p70S6K,377 POC
same,Avg POC MAP4K2,MAP4K2,115.5 POC
same,Avg POC MKK7beta,MKK7beta,159 POC
same,Avg POC PDK1,PDK1,126.5 POC
same,Avg POC SIK,SIK,139 POC
same,Avg POC MYLK,MYLK,100.5 POC
same,Avg POC FGFR1,FGFR1,96 POC
same,Avg POC SGK1,SGK1,279 POC
same,Avg POC EphA7,EphA7,94.5 POC
same,Avg POC NEK6,NEK6,115.5 POC
same,Avg POC AKT3,AKT3,124 POC
same,Avg POC NLK,NLK,121 POC
same,Avg POC EphA5,EphA5,123 POC
same,Avg POC EphB2,EphB2,112.5 POC
same,Avg POC PAK2,PAK2,89.5 POC
same,Avg POC Fms,Fms,88.5 POC
same,Avg POC EphA2,EphA2,126.5 POC
same,Avg POC NEK11,NEK11,108 POC
same,Avg POC STK33,STK33,104.5 POC
same,Avg POC PDGFRalpha,PDGFRalpha,126.5 POC
same,Avg POC Lyn,Lyn,104.5 POC
same,Avg POC FAK,FAK,99 POC
same,Avg POC IKKalpha,IKKalpha,137.5 POC
same,Avg POC PRKG1alpha,PRKG1alpha,122.5 POC
same,Avg POC p38gamma,p38gamma,107.5 POC
same,Avg POC CDK1/cyclinB,CDK1/cyclinB,99 POC
same,Avg POC Fyn,Fyn,113 POC
same,Avg POC CAMK4,CAMK4,149 POC
same,Avg POC JNK2alpha2,JNK2alpha2,89.5 POC
